This is an account of results in patent US20180354909A1, “SUBSTITUTED BENZIMIDAZOLIUM, PYRIDO-IMIDAZOLIUM, OR PYRAZINO-IMIDAZOLIUM COMPOUNDS AS CHEMOTHERAPEUTICS” (The Board of Regents of the University of Texas System, priority 2015, published 2018).

In one series the test system is Mut6. The experiment in a line: Cytotox testing (CellTiter-Glo ATP assay) in Mut6 cells. The settings on record: Mus musculus, 96 h, Mut6 cells, 4 days, CellTiter-Glo; read-out: Activity in Mut6 [EC50]. It is filed as cell-based, mouse. On the procedure:
Mut6 tumor cells were cultured in DMEM/F12 media supplemented by EGF (10 ng/mL), basic FGF (10 ng/mL), heparin (4 ug/mL), glucose (total 21 mM), NaHCO3 (113 μg/mL), Hepes (119 μg/mL), glutamine (2 mM), sodium pyruvate (1 mM), N2 supplement (ThermoFisher Gibco 17502-048, 100×, at 100-fold dilution), B27 supplement (ThermoFisher Gibco 12587-010, 50×, at 100-fold dilution), and penicillin/streptomycin (ThermoFisher, final 1%). Cells were maintained in Ultra-low attachment plate (Corning) as sphere-forming cells. For ATP assays and protein/RNA isolation, cells were plated into 96-well plates or 6-well plated that were coated with poly-lysine (Sigma P6407, 10 μg/mL in PBS, 4 hr at 37° C.) and laminin (ThermoFisher 23017015, ˜5 mg/L in PBS, overnight at 37° C.). MEFs and Astrocytes were cultured in DMEM supplemented with 10% FBS and 1% Penicillin/Streptomycin.
2,000 cells were plated into each well of 96-well plates. About 3 hours later, cells were treated by 12M11, at 800-fold dilution (4 mM stock was diluted into 5 μM final concentration). […] CellTiter-Glo assay (Promega) was performed according to manufacturer's instructions, by adding 20 μL of reagent into each well. Luminescence signal was detected by the PolarStar plate reader (BMG Labtech). Experiments were performed in quadruplicate, and results are presented with mean average −/+ standard deviation. EC505 were calculated by GraphPad Prism6 software.
The compounds described herein were tested using a cell-based cytotoxicity assay against neuronal stem cells in Mut6, which is a mouse glioblastoma model cell line.

A short description of series [1]: In vitro plasma half-life. It is filed as in vitro ADME. The note with it: murine plasma; for half-life at 2 μM: mouse, plasma, read-out: Plasma T1/2 (converted). On the procedure:
(§1) 12M11 (2 μM final concentration) was incubated with murine plasma and saline for 0-1440 minutes. Reactions were quenched with 200 μl (1:2) of methanol containing 0.1% formic acid and 200 ng/ml IS (IS final conc.=100 ng/mL). Samples were vortexed for 15 seconds, incubated at RT for 10 minutes and spun for 5 minutes at 13.2K rpm. Supernatant ([…]) was then transferred to an eppendorf tube and spun in a table top, chilled centrifuge for 5 minutes at 13.2K rpm. Supernatant (800 μL) was transferred to an HPLC vial (w/out insert). Analyzed by Qtrap 3200 mass spectrometer. These methods were used data obtained in the FIGS. 22C and 22F.

Series [2] in a line: Buffer (saline) stability. The format is physicochemical. The procedure: as §1

Molecules are shown by their SMILES.

For the compound `CC(C)[C@@H]1CC[C@@H](C)CC1OC(=O)Cn1c(-c2ccc(N(C)C)cc2)[n+](C)c2ccccc21.[I-]` (stereo partly drawn), the EC50 in the series with Mut6 was less than 0.1 µM. Moreover, in series [1], the half-life at 2 μM is 8 min. For the same compound, in series [2], the “Buffer Stability” value was determined as 9%. For `CC(C)[C@@H]1CC[C@@H](C)CC1OC(=O)Cn1c(-c2cc(Cl)cc(Cl)c2)[n+](C)c2ccccc21.[I-]` (stereo partly drawn), the concentration giving a half-maximal response (EC50) in the series with Mut6 lay within 0.1 to 1 µM. Besides, the half-life at 2 μM in series [1] is 39 min. Moreover, the “Buffer Stability” value in series [2] was found to be 91%. Regarding `CCc1n(CC(=O)O[C@@H]2C[C@H](C)CC[C@H]2C(C)C)c2ccccc2[n+]1C.[Cl-]`, in the series with Mut6, the EC50 was 0.1 to 1 µM. Also, the “Plasma T1/2” value in series [1] is on record as less than 4 min. Further, the “Buffer Stability” value in series [2] was determined as 100%. On to `CSc1ccc(-c2n(CC(=O)OC3C[C@H](C)CC[C@H]3C(C)C)c3ccccc3[n+]2C)cc1.[I-]` (stereo partly drawn), for which the EC50 in the series on Mut6 lay in the range of 0.1 to 1 µM. In addition, the half-life at 2 μM in series [1] is 10 min. In addition, the “Buffer Stability” value in series [2] came to 100%.

Consider `CC(C)[C@@H]1CC[C@@H](C)CC1OC(=O)Cn1c(-c2cccc(F)c2)[n+](C)c2ccccc21.[I-]` (stereo partly drawn), for which the EC50 in the series with Mut6 lay within 0.1 to 1 µM. Besides, in series [1], the half-life at 2 μM was 11 min. Further, the “Buffer Stability” value in series [2] worked out at 100%. As for `CCc1n([C@H](Cc2ccccc2)C(=O)OC2C[C@H](C)CC[C@H]2C(C)C)c2ccccc2[n+]1C` (stereo partly drawn), in the series with Mut6, the concentration for a half-maximal effect (EC50) is 0.1 to 1 µM. With `CC(C)[C@@H]1CC[C@@H](C)CC1OC(=O)[C@@H](C1CC1)n1c(-c2ccc(C(F)(F)F)cc2)[n+](C)c2ccccc21` (stereo partly drawn), in the series on Mut6, the EC50 was 0.1 to 1 µM. Still for that read-out and setting: with `CC[n+]1c(-c2ccc(N(C)C)cc2)n(CC(=O)OC2C[C@H](C)CC[C@H]2C(C)C)c2ccccc21` (stereo partly drawn) the figure was less than 0.1 µM; with `CCc1n([C@H](C)C(=O)OC2C[C@@H](C)CC[C@@H]2C(C)C)c2ccccc2[n+]1C` (stereo partly drawn), less than 0.1 µM; with `CCc1n(CC(=O)OC2C[C@H](C)CC[C@H]2C(C)C)c2cc(OC)ccc2[n+]1C` (stereo partly drawn), less than 0.1 µM.

Turning to `CC(C)[C@@H]1CC[C@@H](C)CC1OC(=O)Cn1c(-c2ccc(Cl)c(C(F)(F)F)c2)[n+](C)c2ccccc21` (stereo partly drawn), the EC50 in the series on Mut6 fell in the range of 0.1 to 1 µM. Same read-out and setting: then `CCc1n(CC(=O)O[C@H]2C[C@@H](C)CC[C@@H]2C(C)C)c2ccccc2[n+]1C`, with 0.1 to 1 µM. Same read-out and setting: with `CCc1n([C@@H](C(=O)OC2C[C@H](C)CC[C@H]2C(C)C)C2CC2)c2ccccc2[n+]1C` (stereo partly drawn) the figure was less than 0.1 µM; with `CCc1n(CC(=O)OCCOC)c2ccccc2[n+]1C`, greater than 5 µM.

Regarding `CCc1n(CC(=O)OC2C[C@H](C)CC[C@H]2C(C)C)c2ccc(OC)cc2[n+]1C` (stereo partly drawn), in the series on Mut6, the EC50 is less than 0.1 µM. As for `C/C=C/c1n(CC(=O)OC2C[C@H](C)CC[C@H]2C(C)C)c2ccccc2[n+]1C` (stereo partly drawn), in the series with Mut6, the EC50 was 1 to 5 µM.

With `COc1ccc(-c2n([C@@H](C(=O)OC3C[C@H](C)CC[C@H]3C(C)C)C3CC3)c3ccccc3[n+]2C)cc1` (stereo partly drawn), in the series with Mut6, the EC50 was less than 0.1 µM. On the same count and under the same terms, with `CC(C)[C@@H]1CC[C@@H](C)CC1OC(=O)[C@@H](C1CC1)n1c(-c2ccc(N(C)C)cc2)[n+](C)c2ccccc21` (stereo partly drawn) the figure was less than 0.1 µM; with `COC(=O)Cn1c(-c2ccc(F)cc2)nc2ccccc21`, greater than 5 µM; with `CCc1n(CC(=O)Oc2ccccc2)c2ccccc2[n+]1C`, greater than 5 µM. Turning to `Cc1cc(-c2n([C@H](C)C(=O)OC3C[C@H](C)CC[C@H]3C(C)C)c3ccccc3[n+]2C)ccc1N(C)C` (stereo partly drawn), the EC50 with Mut6 was less than 0.1 µM.

Consider `COc1ccc(-c2n([C@H](C)C(=O)OC3C[C@H](C)CC[C@H]3C(C)C)c3ccccc3[n+]2C)cc1` (stereo partly drawn), for which the EC50 with Mut6 is less than 0.1 µM. Still for that read-out and setting: with `CC(C)[C@@H]1CC[C@@H](C)CC1OC(=O)Cn1c(-c2ccc(C(F)(F)F)cc2)[n+](C)c2ccccc21` (stereo partly drawn) the figure was 0.1 to 1 µM.

Regarding `CCc1n(CC(=O)OC2C[C@H](C)CC[C@H]2C(C)C)c2ccc(C(F)(F)F)cc2[n+]1C` (stereo partly drawn), the EC50 in the series with Mut6 is 1 to 5 µM. For `CC(C)[C@@H]1CC[C@@H](C)CC1OC(=O)[C@@H](C1CC1)n1c(-c2ccc(N(C)C)c(C(F)(F)F)c2)[n+](C)c2ccccc21` (stereo partly drawn), the EC50 with Mut6 was in the range of 0.1 to 1 µM.

As for `CCc1n(CC(=O)OC2C[C@H](C)CC[C@H]2C(C)C)c2cc(Cl)ccc2[n+]1C` (stereo partly drawn), the EC50 in the series with Mut6 lay in the range of 0.1 to 1 µM. Regarding `CCc1n(CC(=O)O[C@H]2CC[C@H](C)CC2)c2ccccc2[n+]1C`, in the series with Mut6, the EC50 was greater than 5 µM.

Regarding `CC(C)[C@@H]1CC[C@@H](C)CC1OC(=O)Cn1c(-c2ccc(N(C)C)cc2)[n+](CC2CC2)c2ccccc21` (stereo partly drawn), the EC50 in the series on Mut6 was less than 0.1 µM. For `COc1ccc(-c2n(CC(=O)OC3C[C@H](C)CC[C@H]3C(C)C)c3ccccc3[n+]2C)cc1.[I-]` (stereo partly drawn), in the series on Mut6, the EC50 lay within 0.1 to 1 µM. Moreover, the half-life at 2 μM in series [1] was 15 min. Also, the “Buffer Stability” value in series [2] was determined as 100%. Turning to `C#CCN(CC(=O)Oc1ccc(-c2n(CC(=O)OC3C[C@H](C)CC[C@H]3C(C)C)c3ccccc3[n+]2C)cc1)Cc1ccc(C2(C(F)(F)F)N=N2)cc1` (stereo partly drawn), the EC50 in the series with Mut6 is 1 to 5 µM. On the same count and under the same terms, then `CC(C)[C@@H]1CC[C@@H](C)CC1OC(=O)Cn1c(-c2ccc(OC(C)(C)C)cc2)[n+](C)c2ccccc21` (stereo partly drawn), with less than 0.1 µM; and `COC(=O)Cn1c(-c2ccccc2)nc2ccccc21`, with greater than 5 µM. Same read-out and setting: then `CCc1n(CC(=O)OC2C[C@H](C)CC[C@H]2C(C)C)c2cc(C(F)(F)F)ccc2[n+]1C` (stereo partly drawn), with 1 to 5 µM; and `CCc1n(CC(=O)OC2C[C@H](C)CC[C@H]2C(C)C)c2cc([N+](=O)[O-])ccc2[n+]1C` (stereo partly drawn), with 1 to 5 µM. Take `CC(C)[C@@H]1CC[C@@H](C)CC1OC(=O)Cn1c(-c2ccc(O)cc2)nc2ccccc21` (stereo partly drawn): the EC50 with Mut6 is greater than 5 µM.

For the compound `CC(C)[C@@H]1CC[C@@H](C)CC1OC(=O)Cn1c(-c2cccc(Br)c2)[n+](C)c2ccccc21.[I-]` (stereo partly drawn), in the series on Mut6, the EC50 fell in the range of 0.1 to 1 µM. For the same compound, the half-life at 2 μM in series [1] was 29 min. Further, in series [2], the “Buffer Stability” value stood at 94%. As to `C#CCOc1ccc(-c2n(CC(=O)OC3C[C@H](C)CC[C@H]3C(C)C)c3ccccc3[n+]2C)cc1N=[N+]=[N-]` (stereo partly drawn), in the series with Mut6, the EC50 is 0.1 to 1 µM. Consider `CC(C)[C@@H]1CC[C@@H](C)CC1OC(=O)Cn1c(-c2ccccc2)[n+](C)c2ccccc21.[I-]` (stereo partly drawn), for which the EC50 in the series with Mut6 lay within 0.1 to 1 µM. Also, the half-life at 2 μM in series [1] is 10.6 min. The “Buffer Stability” value in series [2] is reported as 97%. On to `COC(=O)Cn1c(/C=C/c2ccccc2)nc2ccccc21`, for which the EC50 in the series with Mut6 was greater than 5 µM. For `CC(C)[C@@H]1CC[C@@H](C)CC1OC(=O)Cn1c(-c2ccc(N=[N+]=[N-])cc2)nc2ccccc21` (stereo partly drawn), the EC50 with Mut6 was greater than 5 µM. For the compound `Cc1ccc(-c2n(CC(=O)OC3C[C@H](C)CC[C@H]3C(C)C)c3ccccc3[n+]2C)cc1.[I-]` (stereo partly drawn), the EC50 in the series on Mut6 was in the range of 0.1 to 1 µM. Besides, the half-life at 2 μM in series [1] is 24 min. In addition, the “Buffer Stability” value in series [2] is reported as 95%. Turning to `CCc1n(CC(=O)OC2C[C@H](C)CC[C@H]2C(C)C)c2cc(C)ccc2[n+]1C` (stereo partly drawn), the concentration for a half-maximal effect (EC50) in the series on Mut6 was less than 0.1 µM. For the compound `Cc1ccccc1-c1n(CC(=O)OC2C[C@H](C)CC[C@H]2C(C)C)c2ccccc2[n+]1C.[I-]` (stereo partly drawn), the concentration giving a half-maximal response (EC50) in the series with Mut6 was in the range of 0.1 to 1 µM. In addition, the half-life at 2 μM in series [1] was 73 min. For the same compound, in series [2], the “Buffer Stability” value came to 100%.
